{"source": "PubChem BioAssay AID2060360", "about": "(Molecular Pharmacology Branch, DTP, NCI, 2025);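 further: spheroids exposed to drugs for seven days before readout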", "test_system": "282377-053-R-J1-PDC tumor spheroids, viability", "test": "Anticancer human tumor 282377-053-R-J1-PDC patient-derived colon adenocarcinoma cell line growth inhibition [TAK]", "conditions": "spheroids with HUVEC and MSC; for IC50: curve of first compound; for viability, T/C: stronger effect = lower value", "from_the_text": "Combinatorial screen of targeted agents with TAK-243 and ipatasertib in multi-cell type tumor spheroids\nA high-throughput screen of multi-cell type tumor spheroids was designed to identify active combinations of targeted small molecules and TAK-243 or ipatasertib. Complex spheroids include a stromal component modeled by human endothelial cells (HUVEC) and fibroblasts modeled by human mesenchymal stem cells (MSCs). The concentration ranges selected for each drug and investigational agent were based upon clinically achievable concentrations if the clinical Cmax of the agent was known.\nCompounds. The drugs and investigational agents: TAK-243 (785004), ipatasertib (767898), everolimus (733504), selumetinib (741078), bortezomib (756655), trametinib (758246), ixazomib (758254), vemurafenib (761431), dabrafenib (764134), sapanisertib (764658), alpelisib (765974), and copanlisib (816437), were obtained from the National Cancer Institute (NCI) Developmental Therapeutics Program Chemical Repository. The FDA-approved anticancer drug set is available from the NCI Developmental Therapeutics Program. […] The stock solutions were prepared in dimethyl sulfoxide (DMSO, Sigma-Aldrich, St. Louis, MO, cat. D2650) at 800-fold the tested concentration and stored at -70 degrees C prior to their use. All drugs and investigational agents were tested over a range starting from a high concentration at or near the clinical Cmax and decreasing in half-log increments. If the clinical Cmax for an agent had not been determined, the highest concentration tested was 10 microM.\nNCI60 Cell Culture. NCI60 cell lines were obtained from the NCI Developmental Therapeutics Program Tumor Repository. For each lot of cells, the Repository performed Applied Biosystems AmpFLSTR Identifiler testing with PCR amplification to confirm consistency with the published Identifier STR profile for each cell line. Cells were kept in continuous culture for no more than 20 passages. The optimal seeding densities for each of the cell lines at each time point assessed were determined prior to performing the concentration response studies. Briefly, the NCI60 human tumor lines were grown as monolayers in RPMI 1640 medium supplemented with 10% FBS and 2 mmol/L L-glutamine.\nAn additional 2 lines were from the NCI60 cell line panel including melanomas, MALME-3M and SK-MEL-2. Pooled donor human umbilical vein endothelial cells (HUVEC, Lonza, cat. CC-2519) and human mesenchymal stem cells (hMSC, Lonza, cat. PT-2501) were purchased from Lonza (Walkersville, MD).\nPDMR cell lines were grown in complete medium (DC medium): Dulbecco's modified Eagle's medium (DMEM)/F12 supplemented with 5% fetal bovine serum (FBS), 2 mM L-glutamine, 100 U/mL penicillin and 100 µg/ml streptomycin, 0.4 µg/ml hydrocortisone, 10 ng/ml epidermal growth factor (EGF) recombinant human protein, 24 µg/mL adenine, and 0.1 mg/mL primocin. During culture from frozen stock vials, PDMR cells were cultured in the same medium containing 10 µM Y-27632 (see Table 3). The PDCs were cultured in complete DMEM/F12 media without 10 microM Y-27632 dihydrochloride for at least two passages prior to the screen. The pooled donor HUVEC and hMSC were cultured in endothelial cell growth medium 2 (PromoCell, Heidelberg, Germany, cat. C-22011) and mesenchymal stem cell growth medium 2 (PromoCell, cat. C-28009), respectively. For all experiments, HUVEC and hMSC were used at passages </=5.\nFor the pre-screen, cell seeding densities were determined from a titration spanning the range from 5,000 to 313 cells per well. The mct-spheroids including 60% malignant cells, 25% HUVEC and 15% MSC dispensed as a mixture into U-bottom Ultra-Low Attachment 384-well plates (Corning, NY)\nHigh-throughput Drug Combination Screening.\nPrior to their inoculation into 384-well plates, malignant cells, HUVEC, and hMSC were removed from T flasks using TrypLE express (Thermo Fisher Scientific, cat. 12605036) and harvested by centrifugation for 5 min at 233 x g. […]"}
{"smiles": "COC1CC2CCC(C)C(O)(O2)C(=O)C(=O)N2CCCCC2C(=O)OC(C(C)CC2CCC(OCCO)C(OC)C2)CC(=O)C(C)C=C(C)C(O)C(OC)C(=O)C(C)CC(C)C=CC=CC=C1C", "note": "(stereo not given) + CC(C)NCC(C(=O)N1CCN(c2ncnc3c2C(C)CC3O)CC1)c1ccc(Cl)cc1", "values": [{"measurement": "IC50", "setting": "second compound 0.3 µM", "result": "> 100", "unit": "nM"}, {"measurement": "IC50", "setting": "second compound 0.949 µM", "result": "> 100", "unit": "nM"}, {"measurement": "IC50", "setting": "second compound 3 µM", "result": "> 100", "unit": "nM"}, {"measurement": "IC50", "setting": "second compound 9.49 µM", "result": "> 100", "unit": "nM"}, {"measurement": "IC50", "setting": "second compound 30 µM", "result": 8.56, "unit": "nM"}, {"measurement": "viability, T/C", "setting": "second compound 0.3 µM, first compound 0.000316 µM", "result": 93.1, "unit": "%"}, {"measurement": "viability, T/C", "setting": "second compound 0.3 µM, first compound 0.001 µM", "result": 91.7, "unit": "%"}, {"measurement": "viability, T/C", "setting": "second compound 0.3 µM, first compound 0.00316 µM", "result": 94, "unit": "%"}, {"measurement": "viability, T/C", "setting": "second compound 0.3 µM, first compound 0.01 µM", "result": 95, "unit": "%"}, {"measurement": "viability, T/C", "setting": "second compound 0.3 µM, first compound 0.0316 µM", "result": 93.7, "unit": "%"}, {"measurement": "viability, T/C", "setting": "second compound 0.3 µM, first compound 0.1 µM", "result": 91.4, "unit": "%"}, {"measurement": "viability, T/C", "setting": "second compound 0.949 µM, first compound 0.000316 µM", "result": 93.3, "unit": "%"}, {"measurement": "viability, T/C", "setting": "second compound 0.949 µM, first compound 0.001 µM", "result": 87, "unit": "%"}, {"measurement": "viability, T/C", "setting": "second compound 0.949 µM, first compound 0.00316 µM", "result": 91.8, "unit": "%"}, {"measurement": "viability, T/C", "setting": "second compound 0.949 µM, first compound 0.01 µM", "result": 91.8, "unit": "%"}, {"measurement": "viability, T/C", "setting": "second compound 0.949 µM, first compound 0.0316 µM", "result": 87.7, "unit": "%"}, {"measurement": "viability, T/C", "setting": "second compound 0.949 µM, first compound 0.1 µM", "result": 89.4, "unit": "%"}, {"measurement": "viability, T/C", "setting": "second compound 3 µM, first compound 0.000316 µM", "result": 82.2, "unit": "%"}, {"measurement": "viability, T/C", "setting": "second compound 3 µM, first compound 0.001 µM", "result": 87.6, "unit": "%"}, {"measurement": "viability, T/C", "setting": "second compound 3 µM, first compound 0.00316 µM", "result": 80.9, "unit": "%"}, {"measurement": "viability, T/C", "setting": "second compound 3 µM, first compound 0.01 µM", "result": 82.2, "unit": "%"}, {"measurement": "viability, T/C", "setting": "second compound 3 µM, first compound 0.0316 µM", "result": 82.2, "unit": "%"}, {"measurement": "viability, T/C", "setting": "second compound 3 µM, first compound 0.1 µM", "result": 79.1, "unit": "%"}, {"measurement": "viability, T/C", "setting": "second compound 9.49 µM, first compound 0.000316 µM", "result": 81.2, "unit": "%"}, {"measurement": "viability, T/C", "setting": "second compound 9.49 µM, first compound 0.001 µM", "result": 77.8, "unit": "%"}, {"measurement": "viability, T/C", "setting": "second compound 9.49 µM, first compound 0.00316 µM", "result": 73.5, "unit": "%"}, {"measurement": "viability, T/C", "setting": "second compound 9.49 µM, first compound 0.01 µM", "result": 74.9, "unit": "%"}, {"measurement": "viability, T/C", "setting": "second compound 9.49 µM, first compound 0.0316 µM", "result": 65.8, "unit": "%"}, {"measurement": "viability, T/C", "setting": "second compound 9.49 µM, first compound 0.1 µM", "result": 60.4, "unit": "%"}, {"measurement": "viability, T/C", "setting": "second compound 30 µM, first compound 0.000316 µM", "result": 61.6, "unit": "%"}, {"measurement": "viability, T/C", "setting": "second compound 30 µM, first compound 0.001 µM", "result": 64.3, "unit": "%"}, {"measurement": "viability, T/C", "setting": "second compound 30 µM, first compound 0.00316 µM", "result": 55.8, "unit": "%"}, {"measurement": "viability, T/C", "setting": "second compound 30 µM, first compound 0.01 µM", "result": 48.3, "unit": "%"}, {"measurement": "viability, T/C", "setting": "second compound 30 µM, first compound 0.0316 µM", "result": 39.9, "unit": "%"}, {"measurement": "viability, T/C", "setting": "second compound 30 µM, first compound 0.1 µM", "result": 31, "unit": "%"}]}
